≈ marks a conversion by molar mass, not a printed value. Like-named read-outs stand apart in the source and are kept apart here.
Assays:
[1] = target: human constitutive 20S proteasome (c20S) (Homo sapiens, UniProt P28074); test: 20S proteasome assay, chymotrypsin-like activity (succinyl-Leu-Leu-Val-Tyr-AMC), c20S; type: biochemical; conditions: LLVY substrate, 1 h continuous
Source text: (§1) Assay buffer consisted of TE buffer [20 mmol/L Tris (pH 8.0), 0.5 mmol/L EDTA] with (20S) or without (cell lysate) 0.03% SDS. Reactions were initiated by enzyme or lysate addition and monitored for AMC product formation at 27jC with a plate-based spectofluorometer (Tecan).

Solubility pH 7 = conditions: pH 7, aqueous buffer
[2] = target: human 20S immunoproteasome (i20S) (Homo sapiens, UniProt P28062); test: 20S proteasome assay, chymotrypsin-like activity (succinyl-Leu-Leu-Val-Tyr-AMC), i20S; type: biochemical
Source text: as §1

[3] = target: T1, proteasome subunit β5 (beta5) (Homo sapiens, UniProt P28074); test: Proteasome active-site ELISA (ProCISE), beta5, MOLT-4 lysate; type: biochemical; conditions: MOLT4 lysate, human, 1 h continuous treatment, 25° C.
T1 construct: Lysate from the human acute lymphoblastic leukemia cell line, MOLT-4; endogenous in cells; host or cells: MOLT-4
Method in brief: (§2)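 MOLT-4 cell lysate treated 1 h at 25 °C with compound; probe-bound subunits denatured, pulled down on streptavidin beads and detected with subunit-specific antibodies plus HRP chemiluminescence.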

[4] = target: T2, immunoproteasome subunit LMP7 (Homo sapiens, UniProt P28062); test: Proteasome active-site ELISA (ProCISE), LMP7, MOLT-4 lysate; type: biochemical
T2 construct: Lysate from the human acute lymphoblastic leukemia cell line, MOLT-4; endogenous in cells; host or cells: MOLT-4
Method in brief: as §2

[5] = read-out: LLVY i20S Hu 1 h CONT: IC50, LLVY substrate, 1 h continuous
[6] = MOLT4 lysate, 1 h continuous treatment, 25° C.
[7] = read-out: ProCISE beta5 MOLT4 lysate Hu 1 h CONT: IC50
[8] = read-out: ProCISE LMP7 MOLT4 lysate Hu 1 h CONT: IC50, 1 h continuous treatment, 25° C.

SMILES	IC50 [1]	solubility (Solubility pH 7)	IC50 ([2]; LLVY substrate, 1 h continuous)	IC50 [2, 5]	IC50 [3]	IC50 [4, 6]	IC50 [3, 7]	IC50 [4, 8]
COc1ccc(C[C@H](NC(=O)[C@H](C)NC(=O)CN2CCOCC2)C(=O)N[C@@H](C[C@H]2CC[C@@H](O)CC2)C(=O)[C@@]2(C)CO2)cc1 [Compound C-1001, (S)-N-((S)-3-((1s,4R)-4-hydroxycyclohexyl)-1-((R)-2-methyloxiran-2-yl)-1-oxopropan-2-yl)-3-(4-methoxyphenyl)-2-((S)-2-(2-morpholinoacetamido)propanamido)propanamide]	> 10000 nM	2640 µg/mL (≈ 4370 µM)	3230 nM					
COc1ccc(C[C@H](NC(=O)[C@H](C)NC(=O)CN2CCOCC2)C(=O)N[C@@H](CC2CCCC2)C(=O)[C@@]2(C)CO2)c(F)c1 [Compound C-1008, (S)-N-((S)-3-cyclopentyl-1-((R)-2-methyloxiran-2-yl)-1-oxopropan-2-yl)-3-(2-fluoro-4-methoxyphenyl)-2-((S)-2-(2-morpholinoacetamido)propanamido)propanamide]	3380 nM	1430 µg/mL (≈ 2420 µM)	2500 nM					
C[C@H](NC(=O)CN1CCOCC1)C(=O)N[C@@H](Cc1ccco1)C(=O)N[C@@H](CC1CCCC1)C(=O)[C@@]1(C)CO1 [Compound C-1013, (S)-N-((S)-3-cyclopentyl-1-((R)-2-methyloxiran-2-yl)-1-oxopropan-2-yl)-3-(furan-2-yl)-2-((S)-2-(2-morpholinoacetamido)propanamido)propanamide]	548 nM	911 µg/mL (≈ 1710 µM)	445 nM					
C[C@H](NC(=O)CN1CCOCC1)C(=O)N[C@@H](Cc1ccccn1)C(=O)N[C@@H](Cc1ccccc1)C(=O)[C@@]1(C)CO1 [Compound C-1155]		2090 µg/mL (≈ 3790 µM)		252 nM				
COc1ccc(C[C@H](NC(=O)[C@H](C)NC(=O)[C@H]2CCCO2)C(=O)N[C@@H](Cc2ccccc2)C(=O)[C@@]2(C)CO2)cc1 [Compound C-1166, (R)-N-((S)-1-(((S)-3-(4-methoxyphenyl)-1-(((S)-1-((R)-2-methyloxiran-2-yl)-1-oxo-3-phenylpropan-2-yl)amino)-1-oxopropan-2-yl)amino)-1-oxopropan-2-yl)tetrahydrofuran-2-carboxamide]		536 µg/mL (≈ 971 µM)			961 nM	360 nM		
COc1ccc(C[C@H](NC(=O)[C@H](C)NC(=O)[C@@H]2CCCO2)C(=O)N[C@@H](Cc2ccccc2)C(=O)[C@@]2(C)CO2)cc1 [Compound C-1167, (S)-N-((S)-1-(((S)-3-(4-methoxyphenyl)-1-(((S)-1-((R)-2-methyloxiran-2-yl)-1-oxo-3-phenylpropan-2-yl)amino)-1-oxopropan-2-yl)amino)-1-oxopropan-2-yl)tetrahydrofuran-2-carboxamide]		790 µg/mL (≈ 1430 µM)			526 nM	155 nM		
C[C@H](NC(=O)CN1CCOCC1)C(=O)N[C@@H](Cc1ccncc1)C(=O)N[C@@H](Cc1ccccc1)C(=O)[C@@]1(C)CO1 [Compound C-1171]		1680 µg/mL (≈ 3050 µM)		63.1 nM			252 nM	51 nM
COc1ccc(C[C@H](NC(=O)[C@@H](NC(=O)CN2CCOCC2)[C@@H](C)O)C(=O)N[C@@H](Cc2ccccc2)C(=O)[C@@]2(C)CO2)cc1 [Compound C-1173]		2340 µg/mL (≈ 3840 µM)		33.6 nM			114 nM	28.9 nM
C[C@H](NC(=O)CN1CCOCC1)C(=O)N[C@@H](Cc1cccnc1)C(=O)N[C@@H](Cc1ccccc1)C(=O)[C@@]1(C)CO1 [Compound C-1175]		2480 µg/mL (≈ 4490 µM)		129 nM			441 nM	107 nM
COc1ccc(C[C@H](NC(=O)[C@H](C)NC(=O)NN2CCOCC2)C(=O)N[C@@H](Cc2ccccc2)C(=O)[C@@]2(C)CO2)cc1 [Compound C-1178]		1190 µg/mL (≈ 2050 µM)		241 nM			3840 nM	510 nM
COc1ccc(C[C@H](NC(=O)[C@H](C)NC(=O)CC2COC2)C(=O)N[C@@H](Cc2ccccc2)C(=O)[C@@]2(C)CO2)cc1 [Compound C-1179]		1300 µg/mL (≈ 2350 µM)					526 nM	119 nM
COc1ccc(C[C@H](NC(=O)[C@H](C)NC(=O)CN2CCOCC2)C(=O)N[C@@H](Cc2cccc(F)c2)C(=O)[C@@]2(C)CO2)cc1 [Compound C-1180]		1380 µg/mL (≈ 2310 µM)		25.9 nM			312 nM	21 nM
COc1ccc(C[C@H](NC(=O)[C@H](C)NC(=O)CN2CCOCC2)C(=O)N[C@@H](Cc2ccc(C)cc2)C(=O)[C@@]2(C)CO2)cc1 [Compound C-1181]		938 µg/mL (≈ 1580 µM)		13.5 nM			120 nM	13.5 nM
COc1ccc(C[C@H](NC(=O)[C@@H](NC(=O)CN2CCOCC2)C2COC2)C(=O)N[C@@H](Cc2ccccc2)C(=O)[C@@]2(C)CO2)cc1 [Compound C-1183]		4540 µg/mL (≈ 7290 µM)		21.5 nM			101 nM	17.1 nM
COc1ccc(C[C@H](NC(=O)[C@@H](NC(=O)CN2CCOCC2)C2(O)CC2)C(=O)N[C@@H](Cc2ccccc2)C(=O)[C@@]2(C)CO2)cc1 [Compound C-1184]		2730 µg/mL (≈ 4390 µM)		10.5 nM			63.9 nM	19.5 nM
COc1ccc(C[C@H](NC(=O)[C@@H](C)NC(=O)[C@H]2CC[C@@H](O)CC2)C(=O)N[C@@H](Cc2ccccc2)C(=O)[C@@]2(C)CO2)cc1 [Compound C-1187]		130 µg/mL (≈ 225 µM)					43.4 nM	10.5 nM
COc1ccc(C[C@H](NC(=O)[C@@H](C)NC(=O)C2CCCCC2)C(=O)N[C@@H](Cc2ccccc2)C(=O)[C@@]2(C)CO2)cc1 [Compound C-1188]		12.1 µg/mL (≈ 21.5 µM)					185 nM	29.2 nM
COc1ccc(C[C@H](NC(=O)[C@@H](C)NC(=O)C2CCCC2)C(=O)N[C@@H](Cc2ccccc2)C(=O)[C@@]2(C)CO2)cc1 [Compound C-1189]		22.7 µg/mL (≈ 41.3 µM)					476 nM	58.5 nM
COc1ccc(C[C@H](NC(=O)[C@@H](C)NC(=O)[C@H]2CC[C@H](O)CC2)C(=O)N[C@@H](Cc2ccc(C)cc2)C(=O)[C@@]2(C)CO2)cc1 [Compound C-1190]		457 µg/mL (≈ 769 µM)					205 nM	16.8 nM
COc1ccc(C[C@H](NC(=O)[C@@H](C)NC(=O)[C@H]2CC[C@H](O)CC2)C(=O)N[C@@H](Cc2ccc(O)cc2)C(=O)[C@@]2(C)CO2)cc1 [Compound C-1191]		4250 µg/mL (≈ 7130 µM)					678 nM	24.7 nM
COC[C@H](NC(=O)CN1CCOCC1)C(=O)N[C@@H](Cc1ccc(OC)cc1)C(=O)N[C@@H](Cc1ccccc1)C(=O)[C@@]1(C)CO1 [Compound C-1220]				11 nM				
C=CC(=O)NC[C@H](NC(=O)[C@H](C)NC(=O)CN1CCOCC1)C(=O)N[C@@H](Cc1ccccc1)C(=O)[C@@]1(C)CO1 [Compound C-1225]		3450 µg/mL (≈ 6340 µM)		18.6 nM			205 nM	49.5 nM
C[C@H](NC(=O)CN1CCOCC1)C(=O)N[C@@H](CC1=CCCCC1)C(=O)N[C@@H](Cc1ccccc1)C(=O)[C@@]1(C)CO1 [Compound C-1227]		1980 µg/mL (≈ 3560 µM)		649 nM				
COC[C@H](NC(=O)[C@H](C)NC(=O)CN1CCOCC1)C(=O)N[C@@H](Cc1ccccc1)C(=O)[C@@]1(C)CO1 [Compound C-1234]				1500 nM				
C[C@H](NC(=O)CN1CCOCC1)C(=O)N[C@@H](CC1CCCCC1)C(=O)N[C@@H](Cc1ccccc1)C(=O)[C@@]1(C)CO1 [Compound C-1235]				390 nM				
